One compound from ChEMBL document CHEMBL1145687, “Cochliobolic acid, a novel metabolite produced by Cochliobolus lunatus, inhibits binding of TGF-alpha to the EGF receptor in a SPA assay” (J Nat Prod, 1997) can be followed below.

For the test, the target named is Epidermal growth factor receptor (Homo sapiens, UniProt P00533). Nature of the test: Displacement of [125I]-TGFalpha from human EGFR in human A431 cell membrane by SPA. The test is classed as cell membranes, A-431. On the technique in general: Loss of bound radioactivity is the signal in a displacement assay; it reports binding, not function.
Chain of Epidermal growth factor receptor (P00533 whole entry): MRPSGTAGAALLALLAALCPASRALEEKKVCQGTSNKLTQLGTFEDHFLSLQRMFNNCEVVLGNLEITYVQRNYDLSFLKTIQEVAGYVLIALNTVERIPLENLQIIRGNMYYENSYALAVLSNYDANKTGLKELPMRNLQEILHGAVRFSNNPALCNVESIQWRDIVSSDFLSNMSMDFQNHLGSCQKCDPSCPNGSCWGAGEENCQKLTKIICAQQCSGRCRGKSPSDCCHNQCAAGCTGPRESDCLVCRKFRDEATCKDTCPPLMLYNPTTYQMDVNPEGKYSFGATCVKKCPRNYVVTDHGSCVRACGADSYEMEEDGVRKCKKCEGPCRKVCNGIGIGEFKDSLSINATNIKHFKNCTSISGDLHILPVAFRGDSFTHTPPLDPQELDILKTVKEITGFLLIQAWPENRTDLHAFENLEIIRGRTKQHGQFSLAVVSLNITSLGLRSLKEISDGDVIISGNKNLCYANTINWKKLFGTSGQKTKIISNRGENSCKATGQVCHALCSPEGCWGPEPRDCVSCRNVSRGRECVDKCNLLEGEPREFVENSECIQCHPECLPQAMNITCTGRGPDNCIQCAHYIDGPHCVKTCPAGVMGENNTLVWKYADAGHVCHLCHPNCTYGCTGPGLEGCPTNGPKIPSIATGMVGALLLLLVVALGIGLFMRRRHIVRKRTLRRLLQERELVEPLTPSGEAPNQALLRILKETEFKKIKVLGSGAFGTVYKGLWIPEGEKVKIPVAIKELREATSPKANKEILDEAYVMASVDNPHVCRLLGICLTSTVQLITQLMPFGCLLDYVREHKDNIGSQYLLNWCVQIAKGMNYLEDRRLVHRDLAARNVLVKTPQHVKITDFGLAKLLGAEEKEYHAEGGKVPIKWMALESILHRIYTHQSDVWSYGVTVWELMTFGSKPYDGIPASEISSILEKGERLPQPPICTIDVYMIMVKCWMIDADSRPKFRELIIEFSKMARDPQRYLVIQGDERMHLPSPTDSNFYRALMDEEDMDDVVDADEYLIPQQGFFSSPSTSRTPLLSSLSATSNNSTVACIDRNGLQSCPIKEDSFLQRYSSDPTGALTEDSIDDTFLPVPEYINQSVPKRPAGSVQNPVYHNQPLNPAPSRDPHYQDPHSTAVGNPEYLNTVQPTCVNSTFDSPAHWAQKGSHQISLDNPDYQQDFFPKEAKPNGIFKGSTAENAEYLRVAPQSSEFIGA

Take `CCC(C)/C=C/C(=O)C(=O)/C=C/C=C/C=C/C=C/C=C/C=C/[C@@H]1C[C@@H](O)[C@H](C(=O)O)O1` (stereo partly specified) [COCHLIOBOLIC ACID]: the IC50 (in general, the point on the concentration scale where inhibition reaches its midpoint) amounted to 1600 nM.
